Test results as given in patent publication US20100298141A1, “SUBSTITUTED PYRIDINE N-OXIDE HERBICIDES” (E. I. DU PONT DE NEMOURS AND COMPANY, priority 2007, published 2010).

Key:
crabgrass = experiment: Test A pre-/postemergence greenhouse test; format: in vivo, Digitaria sanguinalis; conditions: for Crabgrass, Large plant response rating: 0 to 100 scale; for Plant response rating, Crabgrass, Large: 0 to 100 scale where 0 is no effect and 100 is complete control
Procedure, shortened: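 Greenhouse herbicide screen, pre- and postemergence in parallel. Soil: loam plus sand. Formulation: non-phytotoxic solvent mix with surfactant. Postemergence stage: one to two leaves, 2–10 cm height. Evaluation: visual injury, compared with untreated controls, about 10 days after treatment.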

Russian thistle = experiment: Test C pre-/postemergence test; format: in vivo, Salsola kali; conditions: for Plant response rating, Russian Thistle: scale 0 to 100 (0 no effect, 100 complete control)
From the text: Seeds of plant species selected from blackgrass (Alopecurus myosuroides), downy brome (Bromus tectorum), green foxtail (Setaria viridis), Italian ryegrass (Lolium multiflorum), wheat (Triticum aestivum), wild oat (Avena fatua), catchweed bedstraw (Galium aparine), Russian thistle (Salsola kali), […] (Cynodon dactylon), Surinam grass (Brachiaria decumbens), cocklebur (Xanthium strumarium), corn (Zea mays), crabgrass (Digitaria sanguinalis), woolly cupgrass (Eriochloa villosa), giant foxtail (Setaria faberii), Goosegrass (Eleusin indica), johnsongrass (Sorghum halepense), kochia (Kochia scoparia), lambsquarters (Chenopodium album), morningglory (Ipomoea coccinea), eastern black nightshade (Solanum ptycanthum), yellow nutsedge (Cyperus esculentus), pigweed (Amaranthus retroflexus), common ragweed (Ambrosia elation), soybean (Glycine max), common (oilseed) sunflower (Helianthus annuus), and velvetleaf (Abutilon theophrasti) were planted and treated preemergence with test chemicals formulated in a non-phytotoxic solvent mixture which included a surfactant. At the same time, plants selected from these crop and weed species and also winter barley (Hordeum vulgare), canarygrass (Phalaris minor), and chickweed (Stellaria media) were treated with postemergence applications of some of the test chemicals formulated in the same manner. Plants ranged in height from 2 to 18 cm (1- to 4-leaf stage) for postemergence treatments. […] At time of treatment, test pots were flooded to 3 cm above the soil surface, treated by application of test compounds directly to the paddy water, and then maintained at that water depth for the duration of the test. […] A dash (-) response means no test result.

catchweed bedstraw = experiment: Test C pre-/postemergence test; format: in vivo, Galium aparine; conditions: for Plant response rating, Galium: scale 0 to 100 (0 no effect, 100 complete control)
Procedure, shortened: (§1)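 Compounds in a non-phytotoxic solvent with surfactant applied preemergence to seeded pots and, at the same time, postemergence to plants 2–18 cm tall (1- to 4-leaf stage). Paddy tests: pots flooded to 3 cm, compound applied into the water, depth held throughout.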

downy brome = experiment: Test C pre-/postemergence test; format: in vivo, Bromus tectorum; conditions: for Plant response rating, Bromegrass, Downy: scale 0 to 100 (0 no effect, 100 complete control)
Procedure, shortened: as §1

[1] = Postemergence, 125 g ai/ha, 0 is no effect, 100 is complete control
[2] = Postemergence, 500 g ai/ha, 0 is no effect, 100 is complete control
[3] = Preemergence, 125 g ai/ha, 0 no effect, 100 complete control
[4] = 62 g ai/ha, Preemergence, scale 0 to 100
[5] = preemergence, 125 g ai/ha, scale 0 (no effect) to 100 (complete control)
[6] = 31 g ai/ha, Preemergence, scale 0 to 100
[7] = 62 g ai/ha, preemergence, scale 0 (no effect) to 100 (complete control)
[8] = 125 g ai/ha, preemergence, scale 0 (no effect) to 100 (complete control)
[9] = preemergence, 250 g ai/ha, scale 0 (no effect) to 100 (complete control)
[10] = Preemergence, 500 g ai/ha, 0 no effect, 100 complete control

| Compound | Crabgrass, Large plant response rating (crabgrass; [1]) | Crabgrass, Large plant response rating (crabgrass; [2]) | Crabgrass, Large plant response rating (crabgrass; [3]) | Plant response rating, Crabgrass, Large (crabgrass; Preemergence, 500 g ai/ha) | Russian Thistle plant response rating (Russian thistle; [4]) | Plant response rating, Russian Thistle (Russian thistle; Preemergence, 31 g ai/ha) | Plant response rating, Galium (catchweed bedstraw; Preemergence, 31 g ai/ha) | Bromegrass, Downy plant response rating (downy brome; [4]) | Plant response rating, Bromegrass, Downy (downy brome; Preemergence, 31 g ai/ha) | Galium plant response rating (catchweed bedstraw; [4]) | Plant response rating, Crabgrass, Large (crabgrass; Postemergence, 125 g ai/ha) | Russian Thistle plant response rating (Russian thistle; [8]) | Russian Thistle plant response rating (Russian thistle; [9]) | Galium plant response rating (catchweed bedstraw; [8]) | Galium plant response rating (catchweed bedstraw; [9]) | Bromegrass, Downy plant response rating (downy brome; [8]) | Bromegrass, Downy plant response rating (downy brome; [9]) | other results |
| --- | --- | --- | --- | --- | --- | --- | --- | --- | --- | --- | --- | --- | --- | --- | --- | --- | --- | --- |
| Cn1nc(C(F)(F)F)c(C[S+]([O-])c2cc(C(F)(F)F)cc[n+]2[O-])c1Cl (racemic) [Compound 34] | 10 | 70 | 60 | 70 | 100 | 70 | 0 | 0 | 0 |  |  |  |  |  |  |  |  | Plant response rating (0 to 100), Galium (catchweed bedstraw; Preemergence, 250 g ai/ha): 100; Plant response rating (0 to 100), Bromegrass, Downy (downy brome; Preemergence, 250 g ai/ha): 20; Bromegrass, Downy plant response rating (downy brome; [5]): 20 |
| Cc1cc[n+]([O-])c(S(=O)(=O)C(C)c2c(C(F)(F)F)nn(C)c2Cl)c1 (racemic) [Compound 14] | 40 | 70 | 90 | 100 |  |  |  |  |  |  |  |  |  |  |  |  |  | Russian Thistle plant response rating (Russian thistle; [6]): 80; Russian Thistle plant response rating (Russian thistle; [7]): 100; Plant response rating (0 to 100), Russian Thistle (Russian thistle; Preemergence, 250 g ai/ha): 100; Russian Thistle plant response rating (Russian thistle; [5]): 100; Galium plant response rating (catchweed bedstraw; [6]): 0; Galium plant response rating (catchweed bedstraw; [7]): 100; Plant response rating (0 to 100), Galium (catchweed bedstraw; Preemergence, 250 g ai/ha): 100; Galium plant response rating (catchweed bedstraw; [5]): 100; Bromegrass, Downy plant response rating (downy brome; [6]): 30; Bromegrass, Downy plant response rating (downy brome; [7]): 35; Plant response rating (0 to 100), Bromegrass, Downy (downy brome; Preemergence, 250 g ai/ha): 70; Bromegrass, Downy plant response rating (downy brome; [5]): 70 |
| Cn1nc(C(F)(F)F)c(C[S+]([O-])c2cc(C(C)(C)C)cc[n+]2[O-])c1OC(F)F (racemic) [Compound 24] | 0 | 60 | 90 | 100 | 0 |  | 0 | 50 | 10 | 98 |  |  |  |  |  |  |  | Plant response rating (0 to 100), Galium (catchweed bedstraw; Preemergence, 250 g ai/ha): 100; Plant response rating (0 to 100), Bromegrass, Downy (downy brome; Preemergence, 250 g ai/ha): 65; Bromegrass, Downy plant response rating (downy brome; [5]): 50 |
| C#CCOc1c(C[S+]([O-])c2cccc[n+]2[O-])c(C(F)(F)F)nn1C (stereo not shown) [Compound 76] |  | 90 | 80 | 90 | 100 | 0 | 100 | 45 | 0 | 100 | 50 | 100 | 100 | 100 | 100 | 60 | 85 |  |
| Cc1cc[n+]([O-])c(S(=O)(=O)Cc2c(C(F)(F)F)nn(C)c2OC(C)C(F)(F)F)c1 (stereo not shown) [Compound 96] |  | 90 | 80 | 100 | 50 | 0 | 0 | 50 | 50 | 80 | 40 | 80 | 100 | 98 | 100 |  | 55 |  |
| Cn1nc(C(F)(F)F)c(C(Cl)S(=O)(=O)c2cccc[n+]2[O-])c1OC(F)F (stereo not shown) [Compound 51] |  | 90 | 70 | 90 | 100 | 40 | 80 | 0 | 0 | 85 | 60 | 100 | 100 | 95 | 95 | 0 | 0 |  |
| Cn1nc(C(F)(F)F)c(C[S+]([O-])c2cc(Br)cc[n+]2[O-])c1Cl (racemic) [Compound 35] | 50 | 80 | 60 | 80 | 100 | 100 | 0 | 0 | 0 | 100 |  | 100 | 100 | 100 | 100 | 0 | 30 |  |
| Cn1nc(C(F)(F)F)c(C(Cl)S(=O)(=O)c2cccc[n+]2[O-])c1OCC(F)(F)F (racemic) [Compound 36] | 50 | 80 | 70 | 90 |  | 0 | 0 | 0 | 0 | 0 |  |  | 60 | 100 | 100 | 30 | 50 |  |
| Cc1cc[n+]([O-])c(S(=O)(=O)Cc2c(C(F)(F)C(F)(F)F)nn(C)c2OCC(F)(F)F)c1 [Compound 99] |  | 80 | 80 |  | 100 | 100 | 100 | 50 | 30 | 100 | 60 | 100 | 100 | 100 | 100 | 60 | 70 | Crabgrass, Large plant response rating (crabgrass; [10]): 100 |
| C#CCOc1c(CS(=O)(=O)c2cccc[n+]2[O-])c(C(F)(F)F)nn1C [Compound 103] |  | 90 | 70 |  | 100 | 100 |  | 0 | 0 | 98 | 70 | 100 | 100 | 98 | 100 | 70 | 70 | Crabgrass, Large plant response rating (crabgrass; [10]): 100 |
| Cn1nc(C(F)(F)C(F)(F)F)c(C[S+]([O-])c2ccc(Cl)c[n+]2[O-])c1OCC(F)(F)F (stereo not shown) [Compound 92] |  | 90 | 80 | 90 | 100 | 100 |  | 70 | 50 | 80 | 70 | 100 | 100 | 95 | 100 | 85 | 100 |  |
